Key:
Assay in all cases: BTK, BMX, EGFR and ITK Inhibitory Assay
[1] = biological target: Tyrosine-protein kinase BTK (Homo sapiens, UniProt Q06187)
Procedure: (§1) Kinase inhibitory activities of compounds were evaluated using the Enzyme-linked immunosorbent assay (ELISA). The kinase enzyme of BTK, BMX, EGFR and ITK were purchased from Carna Bioscience (Kobe, Japan). A total of 10 ng/mL antiphosphotyrosine (PY713) antibody (abcam, Cambridge Science Park, UK) was precoated in 96-well ELISA plates. The kinase enzymes in each reaction well were set to BTK (101.25 ng/mL), BMX (90 ng/mL), EGFR (90 ng/mL) or ITK (120 ng/mL) and incubated with indicated compounds in 1× reaction buffer (50 mmol/L HEPES pH 7.4, 20 mmol/L MgCl2, 0.1 mmol/L MnCl2, 1 mmol/L DTT) containing 20 μmol/L (the final concentration of substrate in ITK reaction was 30 μmol/L) substrate (NH2-ETVYSEVRK-biotin) at 25° C. for 1 h. Then, a total of 3 μmol/L ATP was added and the reaction was continued for 2 hrs. The products of reaction were transferred into 96-well ELISA plates containing antibody and incubated at 25° C. for 30 min. After incubation, the wells were washed with PBS and then incubated with horseradish peroxidase […]-conjugated streptavidin. The wells were visualized using 3,3′,5,5′-tetramethylbenzidine (TMB), and chromogenic reaction was ended with 2 mol/L H2SO4, the absorbance was read with a multimode plate reader (PerkinElmer, USA) at 450 nm. IC50 values and curve fits were obtained using Prism (GraphPad Software).

[2] = biological target: Epidermal growth factor receptor (Homo sapiens, UniProt P00533)
Chain of Epidermal growth factor receptor (P00533 whole entry): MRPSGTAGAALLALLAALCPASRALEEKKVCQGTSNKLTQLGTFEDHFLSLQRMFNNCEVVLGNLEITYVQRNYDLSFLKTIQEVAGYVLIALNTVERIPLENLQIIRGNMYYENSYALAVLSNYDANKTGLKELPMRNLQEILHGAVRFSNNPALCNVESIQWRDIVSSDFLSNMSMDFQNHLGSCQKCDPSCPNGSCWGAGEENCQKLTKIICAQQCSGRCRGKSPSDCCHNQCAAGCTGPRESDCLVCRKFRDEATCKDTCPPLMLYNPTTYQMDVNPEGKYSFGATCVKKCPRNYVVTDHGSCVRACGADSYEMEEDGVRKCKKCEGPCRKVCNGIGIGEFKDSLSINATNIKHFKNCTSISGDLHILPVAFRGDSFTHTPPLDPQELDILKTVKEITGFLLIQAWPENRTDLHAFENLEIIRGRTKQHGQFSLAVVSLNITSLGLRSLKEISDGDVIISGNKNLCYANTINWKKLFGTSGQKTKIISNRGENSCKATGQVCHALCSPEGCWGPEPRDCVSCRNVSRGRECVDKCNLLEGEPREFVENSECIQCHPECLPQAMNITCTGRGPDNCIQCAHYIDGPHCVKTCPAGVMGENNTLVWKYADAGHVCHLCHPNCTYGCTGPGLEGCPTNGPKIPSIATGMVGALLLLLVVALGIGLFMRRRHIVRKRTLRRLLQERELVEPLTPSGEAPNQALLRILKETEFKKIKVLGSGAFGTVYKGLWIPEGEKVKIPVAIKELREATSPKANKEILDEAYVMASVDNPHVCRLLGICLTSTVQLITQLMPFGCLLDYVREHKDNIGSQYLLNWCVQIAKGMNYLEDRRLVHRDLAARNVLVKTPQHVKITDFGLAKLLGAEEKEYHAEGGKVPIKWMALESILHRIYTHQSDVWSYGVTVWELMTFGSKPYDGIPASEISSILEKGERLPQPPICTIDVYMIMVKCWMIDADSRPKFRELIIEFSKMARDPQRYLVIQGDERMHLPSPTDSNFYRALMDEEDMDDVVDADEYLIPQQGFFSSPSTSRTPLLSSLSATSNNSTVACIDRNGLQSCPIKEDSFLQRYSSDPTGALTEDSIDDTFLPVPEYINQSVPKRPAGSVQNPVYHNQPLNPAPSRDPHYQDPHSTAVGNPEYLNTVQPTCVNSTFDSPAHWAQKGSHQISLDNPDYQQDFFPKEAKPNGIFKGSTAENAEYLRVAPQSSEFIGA
Procedure: as §1

[3] = biological target: T1, Tyrosine-protein kinase ITK/TSK (Homo sapiens, UniProt Q08881)
T1 sequence (Q08881 whole entry): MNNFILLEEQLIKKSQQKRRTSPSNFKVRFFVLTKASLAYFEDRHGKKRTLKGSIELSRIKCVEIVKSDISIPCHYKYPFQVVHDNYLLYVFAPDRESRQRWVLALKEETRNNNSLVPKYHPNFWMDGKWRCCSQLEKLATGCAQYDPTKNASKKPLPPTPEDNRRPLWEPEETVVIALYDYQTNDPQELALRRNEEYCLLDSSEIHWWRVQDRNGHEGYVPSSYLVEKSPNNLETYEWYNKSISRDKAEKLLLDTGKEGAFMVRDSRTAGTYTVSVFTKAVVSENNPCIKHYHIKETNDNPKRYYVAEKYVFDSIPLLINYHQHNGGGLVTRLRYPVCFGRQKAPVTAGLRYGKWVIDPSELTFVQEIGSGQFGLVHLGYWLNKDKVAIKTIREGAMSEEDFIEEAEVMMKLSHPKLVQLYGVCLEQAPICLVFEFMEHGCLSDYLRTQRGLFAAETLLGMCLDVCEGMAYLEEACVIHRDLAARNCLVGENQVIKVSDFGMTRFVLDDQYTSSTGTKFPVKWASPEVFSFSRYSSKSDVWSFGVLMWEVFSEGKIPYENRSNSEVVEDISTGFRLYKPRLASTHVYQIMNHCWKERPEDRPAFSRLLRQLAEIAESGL
Procedure: as §1

[4] = biological target: T2, Cytoplasmic tyrosine-protein kinase BMX (Homo sapiens, UniProt P51813)
T2 sequence (P51813 whole entry): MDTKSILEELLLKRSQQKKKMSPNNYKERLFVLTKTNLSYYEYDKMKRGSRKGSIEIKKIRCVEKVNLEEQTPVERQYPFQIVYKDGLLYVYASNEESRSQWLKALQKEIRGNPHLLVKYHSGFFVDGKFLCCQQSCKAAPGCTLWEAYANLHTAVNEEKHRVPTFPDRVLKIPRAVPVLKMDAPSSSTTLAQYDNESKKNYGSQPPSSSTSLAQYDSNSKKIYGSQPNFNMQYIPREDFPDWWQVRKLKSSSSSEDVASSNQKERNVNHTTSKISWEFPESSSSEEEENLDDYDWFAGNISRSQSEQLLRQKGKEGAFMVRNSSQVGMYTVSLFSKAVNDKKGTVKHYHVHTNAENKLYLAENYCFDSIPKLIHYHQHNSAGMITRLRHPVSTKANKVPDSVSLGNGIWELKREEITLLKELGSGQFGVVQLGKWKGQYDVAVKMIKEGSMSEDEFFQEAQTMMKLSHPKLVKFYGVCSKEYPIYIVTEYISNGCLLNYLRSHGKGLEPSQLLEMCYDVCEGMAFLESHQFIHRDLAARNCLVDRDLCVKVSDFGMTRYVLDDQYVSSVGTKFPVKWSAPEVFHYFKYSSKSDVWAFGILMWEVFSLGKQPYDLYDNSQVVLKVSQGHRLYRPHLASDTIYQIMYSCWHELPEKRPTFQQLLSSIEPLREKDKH
Procedure: as §1

Chain of Tyrosine-protein kinase BTK (Q06187 whole entry): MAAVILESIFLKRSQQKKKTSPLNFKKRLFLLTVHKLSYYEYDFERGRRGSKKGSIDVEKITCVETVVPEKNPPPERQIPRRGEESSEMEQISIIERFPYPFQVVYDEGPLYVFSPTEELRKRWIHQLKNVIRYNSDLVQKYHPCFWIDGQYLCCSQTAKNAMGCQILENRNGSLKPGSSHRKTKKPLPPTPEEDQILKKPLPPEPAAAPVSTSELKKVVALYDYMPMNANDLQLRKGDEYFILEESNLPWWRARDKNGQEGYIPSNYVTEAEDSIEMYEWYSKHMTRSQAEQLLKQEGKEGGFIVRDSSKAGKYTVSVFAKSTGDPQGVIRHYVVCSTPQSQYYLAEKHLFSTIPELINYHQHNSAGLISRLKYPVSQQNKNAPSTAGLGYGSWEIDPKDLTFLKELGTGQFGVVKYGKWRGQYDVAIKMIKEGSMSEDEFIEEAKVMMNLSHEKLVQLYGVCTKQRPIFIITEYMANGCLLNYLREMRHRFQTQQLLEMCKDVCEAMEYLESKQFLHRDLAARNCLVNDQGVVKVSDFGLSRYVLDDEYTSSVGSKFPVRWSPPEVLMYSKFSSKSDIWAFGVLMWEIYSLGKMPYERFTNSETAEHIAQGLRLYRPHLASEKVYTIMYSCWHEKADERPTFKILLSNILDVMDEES

| Structure (SMILES) | IC50 [1] [µM] | IC50 [2] [µM] | IC50 [3] [µM] | IC50 [4] [µM] |
| --- | --- | --- | --- | --- |
| CC#CC(=O)N1CC(C2CCNn3c2nc(-c2ccc(Oc4ccccc4)cc2)c3C(N)=O)C1 (stereo not given) [US12552798, Example 19] | 0.23 |  |  |  |
| NC(=O)c1c(-c2ccc(Oc3ccccc3)cc2)nc2n1NCCC2C1CN(C(=O)/C=C/C(F)(F)F)C1 (stereo not given) [US12552798, Example 20] | 0.008 | 3.24 | 8.65 | 0.0703 |
